In patent US9226950B2, “Method and composition for treating diabetes mellitus” (National Dong Hwa University, priority 2013, dated 2016):

System: L6 myotubes
Assay: Glucose uptake assay (2-deoxyglucose) in L6 myotubes
Type: cell-based, rat
Conditions: FIG. 4
Method: […] muscle myoblast cells (L6) was a generous gift from Professor Hitoshi Ashida's Lab. (Kobe University, Kobe, Japan). The cells were grown and maintained in α-minimal essential medium (α-MEM, 12000022, GIBCO, CA, USA) containing 10% fetal bovine serum (FBS, GIBCO) and 1% penicillin streptomycin (GIBCO) in a cell culture incubator with 5% CO2 at 37° C. Prior to the following experiments, the cells were seeded and cultured at a density of 8×10^3 cells per well in 96-well plates or 2.5×10^5 cells per well in 6-well plates. After the myoblasts achieved 80% confluence, the cells were incubated for 5 days in the α-MEM supplemented with 2% FBS to induce differentiation to myotubes.
The glucose uptake assay was followed the study disclosed in Yamamoto et al. (“An enzymatic fluorimetric assay to quantitate 2-deoxyglucose and 2-deoxyglucose-6-phosphate for in vitro and in vivo use.” Anal Biochem 404(2): 238-240, 2010) with minor modification and the technique generously assistant from Professor Hitoshi Ashida's Lab (Kobe University, Kobe, Japan). […] Uptake of 2DG into the cells was measured by the enzymatic fluorescence assay. The fluorescence assay buffer was composed of 50 mM TEA buffer, 0.1% BSA, 2.5 mM β-NADP (Wako Pure Chemical, Osaka, Japan), 0.05 unit Diaphorase (Wako), 150 unit/L. mesenteriodes G6PDH (sigma), and 0.5 mM Resazurin sodium salt (sigma). […]

CCCCCCCCCCCCCCCCCCCCCCCCO [tetracosanol]
cell glucose uptake (1 μM insulin plus 400 nM S961 and 10 μM tetracosanol (Ins+S961+Tet) versus Ins+Tet): synergistic effect
cell glucose uptake (10 μM tetracosanol with 1 μM insulin (Ins+Tet)): enhanced the cell glucose uptake
